Reference: patent US9260425B2 (Genetech, Inc., priority 2011, dated 2016)

Legend:
BaF3 parental cells = assay: In vitro cell proliferation potency assay, BaF3 parental line with IL-3 (Cell Titer Glo); type: cell-based, murine; conditions: Mus musculus, 2 ng/mL mIL-3, incubated overnight, read-out: Prolif. BaF3 IL3 (IC50)
Procedure: (§1) In Vitro Cell Proliferation Potency Assays
(§2) BaF3 parental line was obtained from the DSMZ repository. BaF3 lines transfected with PIM-1 or PIM-2 were generated. Mouse IL-3 was purchased from R&D Systems. G418 was purchased from Clontech. Media for BaF3 parental line contained RPMI, 10% FBS, 2 mM L-Glutamine, 2 ng/mL mIL-3. Media for BaF3 PIM1 & 2 lines contained RPMI, 10% FBS, 2 mM L-Glutamine, […]. Media for MM1.S (multiple myeloma cells) line contained RPMI, 10% FBS, 2 mM L-Glutamine.
(§3) BaF3, a murine interleukin-3 dependent pro-B cell line, parental cells, BaF3 PIM1 cells, BaF3 PIM-2 cells, and MM1.S (multiple myeloma) cells were seeded at 2 k/well, 5 k/well, 5 k/well, and 10 k/well respectively, in a 384-well plate, at 45 μL/well. Test compound was added at 5 μL/well. BaF3 cells (parental and transfected) were incubated overnight, while MM1.S cells were incubated for 72 hours at 37° C., 5% CO2. Cell Titer Glo Reagent (Promega) was added at 50 μL/well, the plates were incubated for 30 minutes, and their luminescence read on an HT Analyst. IC50/EC50 values for the test compound were calculated.

[1] = test system: MM1.S (multiple myeloma) cells; assay: In vitro cell proliferation potency assay, MM1.S cells (Cell Titer Glo); type: cell-based; conditions: Homo sapiens, 72 hours, read-out: Prolif. MM1S ATP (EC50)
Procedure: as §1, §2, §3

Pim-1 = Pim-1 (Homo sapiens (Human), UniProt P11309); assay: Pim kinase binding activity assay (Example 901), PIM-1 enzyme, Caliper microfluidic peptide phosphorylation; type: biochemical; conditions: 20 pM PIM-1, 10 μM ATP, 1 μM FAM-peptide, 90 minutes at room temperature
Pim-1, sequence (P11309 whole entry): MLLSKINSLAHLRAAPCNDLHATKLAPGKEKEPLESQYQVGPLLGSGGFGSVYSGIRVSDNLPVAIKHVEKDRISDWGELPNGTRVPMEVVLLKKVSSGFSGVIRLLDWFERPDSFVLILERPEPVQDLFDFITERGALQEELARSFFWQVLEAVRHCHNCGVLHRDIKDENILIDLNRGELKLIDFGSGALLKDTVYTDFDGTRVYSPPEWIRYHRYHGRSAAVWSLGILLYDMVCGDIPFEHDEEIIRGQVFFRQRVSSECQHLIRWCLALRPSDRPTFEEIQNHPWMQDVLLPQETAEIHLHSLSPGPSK
How it was run: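 The readout was microfluidic mobility-shift separation of a FAM-tagged Pim-specific peptide, excited at 488 nm and read at 530 nm, with Ki calculated from percent conversion. Reactions held 20 pM PIM-1, 1 μM peptide and 10 μM ATP in pH 7.2 HEPES/MgCl2/DTT buffer, ran 90 min at room temperature and were stopped with EDTA.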

BaF3 PIM1 cells = assay: In vitro cell proliferation potency assay, BaF3 line transfected with PIM-1 (Cell Titer Glo); type: cell-based, murine; conditions: Mus musculus, incubated overnight, read-out: Prolif. BaF3 PIM-1 (IC50)
Procedure: as §1
as §2, with “BaF3 lines transfected with PIM-1 or PIM-2 were generated.” left out
as §3

SMILES | EC50 [1] [nM] | Ki (Pim-1) [nM] | IC50 (BaF3 PIM1 cells) [nM] | IC50 (BaF3 parental cells) [nM]
Cn1cc(-c2cc3c(-c4ccc(Br)c(N5CCC[C@H](N)C5)n4)n[nH]c3cn2)cn1 [Example 376, (S)-1-(3-bromo-6-(5-(1-methyl-1H-pyrazol-4-yl)-1H-pyrazolo[3,4-c]pyridin-3-yl)pyridin-2-yl)piperidin-3-amine] | 356 | 0.009 | 30.9 | 4100
c1cc(-c2n[nH]c3cnc(-c4cnn(C5CCC5)c4)cc23)nc(N2CCNCC2)c1 [Example 390, 5-(1-cyclobutyl-1H-pyrazol-4-yl)-3-(6-(piperazin-1-yl)pyridin-2-yl)-1H-pyrazolo[3,4-c]pyridine] | 130 | 0.132 | 58.5 | 5700
Cc1cncc(-c2cc3c(-c4cccc(N5CCNCC5)n4)n[nH]c3cn2)n1 [Example 505, 5-(6-methylpyrazin-2-yl)-3-(6-(piperazin-1-yl)pyridin-2-yl)-1H-pyrazolo[3,4-c]pyridine] | 97.9 | 0.01 | 40.2 | 2300

The remaining molecules from weak to strong by EC50 [1], led by results:

EC50 [1] [nM] | Ki (Pim-1) [nM] | IC50 (BaF3 PIM1 cells) [nM] | SMILES | IC50 (BaF3 parental cells) [nM]
230 | 0.08 | 63.7 | CCn1cc(-c2cc3c(-c4cccc(N5CCC[C@H](NC)C5)n4)n[nH]c3cn2)cn1 [Example 377, (S)-1-(6-(5-(1-ethyl-1H-pyrazol-4-yl)-1H-pyrazolo[3,4-c]pyridin-3-yl)pyridin-2-yl)-N-methylpiperidin-3-amine] | 5300
228 | 0.057 | 129 | CC(C)Cn1cc(-c2cc3c(-c4cccc(N5CCNCC5)n4)n[nH]c3cn2)cn1 [Example 381, 5-(1-isobutyl-1H-pyrazol-4-yl)-3-(6-(piperazin-1-yl)pyridin-2-yl)-1H-pyrazolo[3,4-c]pyridine] | 2200
170 | 0.078 | 110 | Cn1cc(-c2cc3c(-c4cccc(N5CCCC(C)(O)C5)n4)n[nH]c3cn2)cn1 (stereo not drawn) [Example 383, 3-methyl-1-(6-(5-(1-methyl-1H-pyrazol-4-yl)-1H-pyrazolo[3,4-c]pyridin-3-yl)pyridin-2-yl)piperidin-3-ol] | 1300
